In patent publication US12485182B2, “Proteoglycan mimetics for enhanced wound healing, angiogenesis, and vascular repair” (The Regents of the University of California, priority 2018, dated 2025):
Positions of bridges follow the written chain, without caps; N, C: chain ends. Non-standard residues stand in square brackets, D forms with d. No end group written: not given here.

Experiments:
[1] = tested on: chick chorioallantoic membrane; assay: Ex ovo CAM assay, treatments eluting from collagen gels; assay type: in vivo; conditions: after 24 hours
Procedure: Fertilized Hyline eggs obtained from the Avian Facility at UC Davis were incubated at 37° C. for 72 hours with 6 rotations per day at 80% humidity in a Grumbach egg incubator. On day 3, eggs were cracked open into disinfected weighboats (VWR) and covered with lids from square petri dishes (Fisher), and the embryos developed over a week in the incubator. On day 10, treatments encapsulated in collagen I gels were gently placed on the developing CAM. For experiments involving treatments freely eluting from the collagen gels, 100 μL of gel was polymerized in a 10-mm diameter rubber mold against a sterilized glass slide, and 1 treatment gel and 1 control gel was placed per CAM. The number of vessels in a 2-mm radius immediately surrounding the gel was manually counted in imageJ immediately after placement and 24 hours later to determine changes surrounding vessels. The change in vessels over 24 hours for treatment gels were normalized to the respective change in the control gel on the same developing embryo.

HMVEC monolayer = assay: Endothelial monolayer permeability (transwell, RITC-dextran); assay type: cell-based, human; conditions: by 72 hours
Procedure: The following day, an additional 50,000 cells were seeded to each insert and allowed to grow for another 24 hours. Media was then removed and replaced with 0.5 mL media to the bottom well and 0.1 mL of treatment media to the insert for 10 minutes. Treatment was removed and 0.3 mL of 1 mg/mL RITC-dextran in media was then added to each transwell insert and allowed to permeate for 30 minutes. Sample permeate was then assayed on a SpectraMax M5 plate reader for fluorescence (excitation: 570 nm; emission: 590 nm). RITC-dextran solutions and sample permeates were then aspirated and replaced with another 0.1 mL of treatment media in the transwell insert and 0.5 mL media in the bottom chamber. This procedure was repeated daily over 4 days. Treatments were also compared to inserts with cells removed by rubbing away with a pipette tip to determine the barrier efficacy of the monolayer and the degree of increased permeability.

ischemic wounds = conditions: exogenous VEGF; cited from earlier work
primary EPCs/ECs = assay: LXW7 binding to primary EPCs/ECs; assay type: cell-based
Procedure: (§1) Using primary artery-derived ECs and blood-derived EPCs as living probes to screen One-Bead-One-Compound (OBOC) combinatorial peptide libraries, several high-affinity binding ligands against the αvβ3 integrin on the surface of EPCs/ECs were identified. […] The LXW7 peptide, when grafted to surfaces, supports adhesion and spreading of EPCs and human coronary ECs, but not platelets or monocytes. Culture plates, 24-well, were coated with 500 μL of 20 μg/mL Avidin for 1 hour at 37° C. followed by washing with PBS and coating with either 500 μL molar equivalents of D-biotin, LXW7-biotin, or GRGD (SEQ ID NO: 2)-biotin. After washing with PBS and blocking with 1% BSA wells were ready for cell attachment with 5×10^4 HCAECs or THP-1 monocytes suspended in the respective maintenance medium, or freshly isolated platelets at a density of 5×10^7 platelets/cm^2 incubated for 16 h at 37° C., 5% CO2. The cells were washed with PBS, and fixed in 10% formalin for 20 min. For evaluation of HCAEC, the cells were blocked with 1% BSA and incubated overnight with mouse anti-CD31 antibody (1:100; Abcam) in 1% BSA at 4° C., followed by probing with goat anti-mouse Alexa Fluor 594 conjugate in 1% BSA. Nuclei were stained with DAPI. Images were captured using an Olympus IX81 microscope. […] Quantification of images was performed using the Image J software (NIH).

platelets [2] = assay: LXW7 binding to platelets; assay type: cell-based
Procedure: as §1

THP-1 monocytes [3] = assay: LXW7 binding to THP-1 monocytes; assay type: cell-based
Procedure: as §1

HCAECs = assay: Attachment of HCAECs to peptide-treated surfaces; assay type: cell-based, human; conditions: biotin-peptide on Avidin-coated wells
From the text: (§2) FIG. 33. Attachment of cells and platelets to LXW7 and GRGD (SEQ ID NO: 2) treated surfaces. (A) Images of attached HCAECs (left panels), THP-1 monocytes (middle panels) and platelets (right panels) on surfaces treated by D-Biotin (a-c) (control), LXW7 (d-f) or GRGD (SEQ ID NO: 2) (g-i). Scale bars in a, b, d, e, g and h are 50 μm. Scale bars in c, f and i are 20 μm. (B) The number of cells or platelets attached on different treated surfaces were quantified and statistical analyses were performed. Data were expressed as mean±standard deviation: **p<0.01 (n=4).
(§3) Using primary artery-derived ECs and blood-derived EPCs as living probes to screen One-Bead-One-Compound (OBOC) combinatorial peptide libraries, several high-affinity binding ligands against the αvβ3 integrin on the surface of EPCs/ECs were identified. […] The LXW7 peptide, when grafted to surfaces, supports adhesion and spreading of EPCs and human coronary ECs, but not platelets or monocytes. […] After washing with PBS and blocking with 1% BSA wells were ready for cell attachment with 5×10^4 HCAECs or THP-1 monocytes suspended in the respective maintenance medium, or freshly isolated platelets at a density of 5×10^7 platelets/cm^2 incubated for 16 h at 37° C., 5% CO2. […] Quantification of images was performed using the Image J software (NIH).

THP-1 monocytes [4] = assay: Attachment of THP-1 monocytes to peptide-treated surfaces; assay type: cell-based; conditions: biotin-peptide on Avidin-coated wells
From the text: as §2, §3

platelets [5] = assay: Attachment of platelets to peptide-treated surfaces; assay type: cell-based; conditions: biotin-peptide on Avidin-coated wells
From the text: as §2, §3

ECs = assay: Proliferation of ECs on LXW7-treated surfaces (MTS assay); assay type: cell-based; conditions: surface-grafted LXW7 vs D-biotin control
From the text: (§4) FIG. 34. Effects of LXW7 on EC biological functions. (A) Proliferation of ECs on LXW7-treated surfaces and D-biotin treated surface (control) assessed by MTS assay. Data were expressed as mean±standard deviation: **p<0.01, ***p<0.001 (n=4). (B) Western-blot analysis of the effect of LXW7 on phosphorylation of VEGFR2 (Tyr1175) and phosphorylation of ERK1/2 (left panels) and quantified by densitometry (right panels). Data were expressed as mean±standard deviation: *p<0.05, **p<0.01 (n=4).
(§5) To test the ability of LXW7 to promote endothelialization, we evaluated polymer-based small diameter vascular grafts (ID 1 mm) functionalized with LXW7 via Click chemistry in a rat carotid artery bypass model (FIG. 35). […] After 6 weeks post implantation, 5 out of 6 LXW7-modified grafts were patent versus only 1 out of 6 control grafts was patent (FIG. 35). […] This confirms that LXW7 coating on the luminal surface of synthetic vascular grafts can generate a “living” endothelium.

VEGFR2 = assay: Western-blot, phosphorylation of VEGFR2 (Tyr1175); assay type: cell-based; conditions: surface-grafted LXW7
From the text: as §4, §5

ERK1/2 = assay: Western-blot, phosphorylation of ERK1/2; assay type: cell-based; conditions: surface-grafted LXW7
From the text: as §4, §5

| binding to primary EPCs/ECs (primary EPCs/ECs) | binding to THP-1 monocytes (THP-1 monocytes [3]) | HCAEC binding to treated surface (HCAECs) | monocyte binding to treated surface (THP-1 monocytes [4]) | Substance | vasculogenic activity ([1]; 2 μg/mL) | monolayer permeability vs untreated controls (HMVEC monolayer) | increase in granulation tissue formation (ischemic wounds) | surrounding vessel growth ([1]; 100 μM eluted from collagen gels) | binding to platelets (platelets [2]) | platelet binding to treated surface (platelets [5]) | cell proliferation (ECs) | phosphorylation of VEGF2 receptor (VEGFR2) | phosphorylation of ERK ½ (ERK1/2) |
| --- | --- | --- | --- | --- | --- | --- | --- | --- | --- | --- | --- | --- | --- |
| – | – | – | – | VEGF | comparable vasculogenic activity | significantly different from untreated controls | up to 150% | – | – | – | – | – | – |
| bind strongly | does not bind | supported robust HCAEC binding | not monocyte or platelet binding | cyclic cGRGDdvc ([dC]GRGD[dD][dV][dC]; disulfide 1-8 (inferred)) [LXW7, cyclic octapeptide ligand against the αvβ3 integrin] | – | – | – | either decreased or caused no changes in surrounding vessel growth | weakly | not monocyte or platelet binding | stimulated cell proliferation | stimulated | stimulated |
